# According to patent US20160309717A1, “Compounds with Nematicidal Activity” (BAYER CROPSCIENCE AKTIENGESELLSCHAFT, priority 2013, published 2016):
# Key:
# [1] = Measurement of log P values by HPLC on reversed phase columns (EEC directive 79/831 Annex V.A8); format: physicochemical; conditions: for LogP [b] / chromatographic logP: LC-MS at pH 2.7, 0.1% formic acid in water / acetonitrile; for LogP [c]: LC-MS at pH 7.8, 0.001 molar ammonium hydrogen carbonate in water / acetonitrile; for chromatographic logP: reversed phase HPLC column, read-out: LogP [b]
# Procedure: Measurement of Log P-Values:
# Measurement of log P values was performed according EEC directive 79/831 Annex V.A8 by HPLC (High Performance Liquid Chromatography) on reversed phase columns with the following methods:
# ^[a] Measurement was done at pH 2.3 with 0.1% phosphoric acid and acetonitrile as eluent with a linear gradient from 10% acetonitrile to 95% acetonitrile.
# ^[b]measurement of LC-MS was done at pH 2.7 with 0.1% formic acid in water and with acetonitrile (contains 0.1% formic acid) as eluent with a linear gradient from 10% acetonitrile to 95% acetonitrile.
# ^[c] Measurement with LC-MS was done at pH 7.8 with 0.001 molar ammonium hydrogen carbonate solution in water as eluent with a linear gradient from 10% acetonitrile to 95% acetonitrile.
# Calibration was done with not branched alkan2-ones (with 3 to 16 carbon atoms) with known log P-values (measurement of log P values using retention times with linear interpolation between successive alkanones). Lambda-maX-values were determined using UV-spectra from 200 nm to 400 nm and the peak values of the chromatographic signals.
# Cooperia curticei = Cooperia curticei test (COOPCU), larval mortality
# Procedure: (§1) Solvent: Dimethyl Sulfoxide
# (§2) To produce a suitable preparation of active compound, 10 mg of active compound are dissolved in 0.5 ml solvent, and the concentrate is diluted with “Ringer's solution” to the desired concentration.
# Approximately 40 nematode larvae (Cooperia curticei) are transferred into a test tube containing the compound solution.
# After 5 days percentage of larval mortality is recorded. 100% efficacy means all larvae are killed; 0% efficacy means no larvae are killed.
# Meloidogyne incognita = Meloidogyne incognita test, gall formation on salad seedlings in sand; format: in vivo; conditions: application rate 20 ppm; after 14 days; 100% = no galls found
# Procedure: Solvent: 125.0 Parts by Weight of Acetone
# To produce a suitable preparation of active compound, 1 part by weight of active compound is mixed with the stated amount of solvent, and the concentrate is diluted with water to the desired concentration.
# Vessels are filled with sand, a solution of the active ingredient, a suspension containing eggs and larvae of the southern root-knot nematode (Meloidogyne incognita) and salad seeds. The salad seeds germinate and the seedlings grow. Galls develop in the roots.
# After 14 days the nematicidal activity is determined on the basis of the percentage of gall formation. 100% means no galls were found and 0% means the number of galls found on the roots of the treated plants was equal to that in untreated control plants.
# Haemonchus contortus = assay: microbe, parasite or virus in culture; conditions: 120 h, read-out: activity (percentage of larval mortality)
# Procedure: as §1, §2
# Approximately 40 larvae of the red stomach worm (Haemonchus contortus) are transferred into a test tube containing compound solution.
# After 5 days percentage of larval mortality are recorded. 100% efficacy means all larvae are killed, 0% efficacy means no larvae are killed.
LogP [b] [1],LogP [c] [1],SMILES,also measured
"2,42","2,41",O=C(NCC1(c2cccc(Cl)n2)CC1)c1cccnc1C(F)(F)F [Example 1],–
"2,31","2,33",Cn1cc(C(=O)NCC2(c3ccc(Br)cn3)CC2)c(C(F)F)n1 [Example 12],–
"2,51","2,5",O=C(NCC1(c2ccc(Br)cn2)CC1)c1cccnc1C(F)(F)F [Example 10],nematicidal activity on the basis of the percentage of gall formation (Meloidogyne incognita): 90%
–,–,"O=C(NCC1(c2ncc(Br)cc2Cl)CC1)c1cccnc1C(F)(F)F [Example 14, N-{[1-(5-bromo-3-chloropyridin-2-yl)cyclopropyl]methyl}-2-(trifluoromethyl)nicotinamide]",chromatographic logP [1]: 2.88
"2,63","2,62",O=C(NCC1(c2cccc(Cl)n2)CC1)c1c(F)cccc1F [Example 2],–
"2,25","2,24",Cn1cc(C(=O)NCC2(c3cccc(Cl)n3)CC2)c(C(F)F)n1 [Example 6],–
–,–,"Cn1cc(C(=O)NCC2(c3ncc(C(F)(F)F)cc3Cl)CC2)c(C(F)F)n1 [Example 13, N-[[1-[3-chloro-5-(trifluoromethyl)-2-pyridyl]cyclopropyl]methyl]-3-(difluoromethyl)-1-methyl-pyrazole-4-carboxamide]","mortality at 20 ppm (Haemonchus contortus): 80%; mortality at 20 ppm (Cooperia curticei; Cooperia curticei, 120 h, read-out: activity (percentage of larval mortality)): 100%; chromatographic logP [1]: 2.63; nematicidal activity on the basis of the percentage of gall formation (Meloidogyne incognita): 100%"
"^[b]3,1 ^[c]3,1","^[b]3,1 ^[c]3,1",O=C(NCC1(c2ccc(Br)cn2)CC1)c1ccccc1C(F)(F)F [Example 7],–
3,"2,99",O=C(NCC1(c2cccc(Cl)n2)CC1)c1ccccc1C(F)(F)F [Example 4],–
"3,1","3,09",O=C(NCC1(c2ccc(Br)cn2)CC1)c1ccccc1I [Example 8],–
"^[b]2,71 ^[c]2,71","^[b]2,71 ^[c]2,71",O=C(NCC1(c2ccc(Br)cn2)CC1)c1c(F)cccc1F [Example 9],–
"2,98","2,96",O=C(NCC1(c2cccc(Cl)n2)CC1)c1ccccc1I [Example 3],–

SMILES,LogP [b] [1],LogP [c] [1],also measured
O=C(NCC1(c2ccc(Cl)cn2)CC1)c1ccccc1C(F)(F)F [Example 15],"2,91","2,96","activity (percentage of larval mortality) (Cooperia curticei; application rate 20 ppm, after 5 days, 100% = all larvae killed): 90%; nematicidal activity on the basis of the percentage of gall formation (Meloidogyne incognita): 70%"
O=C(NCC1(c2cccc(Cl)n2)CC1)c1cccnc1Cl [Example 5],"^[b]2,11 ^[c]2,11","^[b]2,11 ^[c]2,11",–
O=C(NCC1(c2ccc(Br)cn2)CC1)c1cccnc1Cl [Example 11],"2,17","2,18",–
